Laboratory results published in US7893074B2, “2, 4-pyrimidinediamines useful in the treatment of neoplastic diseases, inflammatory and immune system disorders” (Novartis AG, priority 2003, dated 2011).
Read-outs that look alike come from different tables or passages of the source.

Legend:
[1] = molecular target: Focal Adhesion Kinase (FAK) (Homo sapiens, UniProt Q05397); experiment: FAK assay system (Focal Adhesion Kinase inhibition); format: biochemical; conditions: read-out: FAK IC50
[2] = test system: Mouse mammary carcinoma 4T1 cells; experiment: Anchorage-independent tumor cell growth assay; format: cell-based
Procedure: Cells are cultured for 2 h and inhibitors are added at various concentrations in a final concentration of 0.1% DMSO. After 48 h, cell growth is assayed with the cell counting kit-8 (Wako Pure Chemical), which uses a water soluble tetrazolium salt WST8. Twenty μL of the reagent is added into each well and cells are further cultured for 2 h. The optical density is measured at 450 nm.

[3] = molecular target: FAK (Mus musculus, UniProt P34152); experiment: Phos IC50 (phosphorylation); format: cell-based
Sequence of FAK (P34152 2-1052): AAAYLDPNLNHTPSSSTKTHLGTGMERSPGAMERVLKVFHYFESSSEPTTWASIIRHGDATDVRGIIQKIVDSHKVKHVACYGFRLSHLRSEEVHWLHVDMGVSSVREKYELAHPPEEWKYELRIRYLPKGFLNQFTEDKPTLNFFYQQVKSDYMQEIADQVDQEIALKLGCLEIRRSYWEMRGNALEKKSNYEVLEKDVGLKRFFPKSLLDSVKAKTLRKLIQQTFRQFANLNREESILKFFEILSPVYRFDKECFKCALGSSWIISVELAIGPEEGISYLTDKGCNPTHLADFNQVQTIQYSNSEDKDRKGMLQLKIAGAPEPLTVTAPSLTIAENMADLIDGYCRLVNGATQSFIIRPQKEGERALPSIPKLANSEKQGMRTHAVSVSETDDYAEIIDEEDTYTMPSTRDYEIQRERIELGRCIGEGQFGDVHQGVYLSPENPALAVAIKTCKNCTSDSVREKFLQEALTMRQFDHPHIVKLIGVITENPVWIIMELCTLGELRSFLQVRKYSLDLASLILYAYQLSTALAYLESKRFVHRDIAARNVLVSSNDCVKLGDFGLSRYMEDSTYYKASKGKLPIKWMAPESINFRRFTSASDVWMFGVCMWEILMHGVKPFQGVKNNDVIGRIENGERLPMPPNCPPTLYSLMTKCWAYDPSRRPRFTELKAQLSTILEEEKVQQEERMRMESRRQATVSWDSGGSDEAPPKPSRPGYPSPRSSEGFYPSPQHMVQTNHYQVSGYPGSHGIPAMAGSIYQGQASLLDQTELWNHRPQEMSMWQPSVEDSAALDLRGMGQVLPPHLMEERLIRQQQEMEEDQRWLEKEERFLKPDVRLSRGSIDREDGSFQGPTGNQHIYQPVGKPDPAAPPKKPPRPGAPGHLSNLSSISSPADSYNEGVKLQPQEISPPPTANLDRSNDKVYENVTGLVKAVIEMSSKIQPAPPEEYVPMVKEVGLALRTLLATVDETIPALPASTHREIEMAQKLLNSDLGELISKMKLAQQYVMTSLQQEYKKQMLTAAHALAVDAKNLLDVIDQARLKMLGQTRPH

Sequence of Focal Adhesion Kinase (FAK) (Q05397 384-706): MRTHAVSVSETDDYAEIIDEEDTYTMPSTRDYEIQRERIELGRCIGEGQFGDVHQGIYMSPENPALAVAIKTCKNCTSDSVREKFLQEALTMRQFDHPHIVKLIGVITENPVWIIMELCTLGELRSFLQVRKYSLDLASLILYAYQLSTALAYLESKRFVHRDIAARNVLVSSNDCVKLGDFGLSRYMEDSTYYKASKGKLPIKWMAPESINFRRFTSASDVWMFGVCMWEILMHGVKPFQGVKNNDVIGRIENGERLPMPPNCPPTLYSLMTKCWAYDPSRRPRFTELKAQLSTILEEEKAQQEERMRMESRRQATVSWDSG

In the case of `CNC(=O)c1c(C)cccc1Nc1nc(Nc2ccc(OC3CCN(C)CC3)cc2OC)ncc1Cl` [Example 10-1], the IC50 [1] is reported as 39 nM, the IC50 ([2]; Mus musculus, 4T1) is reported as 440 nM and the IC50 [3] is reported as 1000 nM.
With `CNC(=O)c1c(C)cccc1Nc1nc(Nc2ccc(N3CCC(N4CCCCC4)CC3)cc2OC)ncc1Cl` [Example 10-2] the IC50 [1] was 26 nM, the IC50 ([2]; Mus musculus, 4T1) was 1060 nM and the IC50 [3] was 900 nM.
`CNC(=O)c1c(C)cccc1Nc1nc(Nc2ccc(N3CCOCC3)cc2OC)ncc1Cl` [Example 10-3] showed an IC50 [1] of 23 nM, an IC50 ([2]; Mus musculus, 4T1) of 2400 nM and an IC50 [3] of 900 nM.
Compound `CNC(=O)c1cc(F)ccc1Nc1nc(Nc2ccc(N3CCOCC3)cc2OC)ncc1Cl` [Example 11-1] has an IC50 [1] of 9 nM, an IC50 ([2]; Mus musculus, 4T1) of 850 nM and an IC50 [3] of 700 nM.
`CNC(=O)c1cc(F)ccc1Nc1nc(Nc2ccc(N3CCC(N4CCCCC4)CC3)cc2OC)ncc1Cl` [Example 11-2] was tested, and the IC50 [1] was 4.1 nM, the IC50 ([2]; Mus musculus, 4T1) was 690 nM and the IC50 [3] was 800 nM.
Work on `CNC(=O)c1cc(F)ccc1Nc1nc(Nc2cccc3c2ccn3C)ncc1Cl` [Example 11-3] yielded an IC50 [1] of 26 nM, an IC50 ([2]; Mus musculus, 4T1) of 100 nM and an IC50 [3] of 410 nM.
With `CNC(=O)c1cc(F)ccc1Nc1nc(Nc2ccc(N3CCN(C(C)=O)CC3)cc2OC)ncc1Cl` [Example 11-4] the IC50 [1] was 4.3 nM, the IC50 ([2]; Mus musculus, 4T1) was 3200 nM and the IC50 [3] was > 10000 nM.
`CCNC(=O)c1cc(F)ccc1Nc1nc(Nc2ccc(N3CCOCC3)cc2OC)ncc1Cl` [Example 14-5] was tested, and the IC50 [1] was 37 nM, the IC50 ([2]; Mus musculus, 4T1) was 1000 nM and the IC50 [3] was > 10000 nM.
For `COc1cc(N2CCOCC2)ccc1Nc1ncc(Cl)c(Nc2ccccc2S(=O)(=O)N2CCOCC2)n1` [Example 14-7], the IC50 [1] was 7.5 nM, the IC50 ([2]; Mus musculus, 4T1) was 1400 nM and the IC50 [3] was 200 nM.
`CNC(=O)c1cc(N2CCCC2)ccc1Nc1nc(Nc2ccc(OC3CCN(C)CC3)cc2OC)ncc1Cl` [Example 15-2] was tested, and the IC50 [1] was 21 nM, the IC50 ([2]; Mus musculus, 4T1) was 660 nM and the IC50 [3] was > 10000 nM.
For `CNC(=O)c1cc(N2CCOCC2)ccc1Nc1nc(Nc2ccc(F)cc2OC)ncc1Cl` [Example 16-1], the IC50 [1] was 44 nM, the IC50 ([2]; Mus musculus, 4T1) was 4000 nM and the IC50 [3] was > 10000 nM.
`CNC(=O)c1cc(N2CCN(C)CC2)ccc1Nc1nc(Nc2ccc(F)cc2OC)ncc1Cl` [Example 16-2] was tested, and the IC50 [1] was 6 nM, the IC50 ([2]; Mus musculus, 4T1) was 600 nM and the IC50 [3] was > 10000 nM.
With `CNC(=O)c1cc(OC)ccc1Nc1nc(Nc2ccc(F)cc2OC)ncc1Cl` [Example 16-3] the IC50 [1] was 21 nM, the IC50 ([2]; Mus musculus, 4T1) was > 10000 nM and the IC50 [3] was 3000 nM.
For `CNC(=O)c1cc(N2CCC(N3CCCCC3)CC2)ccc1Nc1nc(Nc2ccc(F)cc2OC)ncc1Cl` [Example 16-4], the IC50 [1] was 9.5 nM, the IC50 ([2]; Mus musculus, 4T1) was 920 nM and the IC50 [3] was > 10000 nM.
`COc1cc(F)ccc1Nc1ncc(Cl)c(Nc2ccccc2S(=O)(=O)N2CCOCC2)n1` [Example 16B] showed an IC50 [1] of 11 nM, an IC50 ([2]; Mus musculus, 4T1) of 7000 nM and an IC50 [3] of 3000 nM.
For `COc1cc(F)ccc1Nc1ncc(Cl)c(Nc2ccccc2S(=O)(=O)NCC(F)(F)F)n1` [Example 16C], the IC50 [1] was 28 nM, the IC50 ([2]; Mus musculus, 4T1) was > 10000 nM and the IC50 [3] was 900 nM.
In the case of `CNC(=O)c1cc(N2CCOCC2)ccc1Nc1nc(Nc2ccc(N3CCN(C(C)=O)CC3)cc2OC)ncc1Cl` [Example 18-1], the IC50 [1] is reported as 19 nM, the IC50 ([2]; Mus musculus, 4T1) is reported as 1290 nM and the IC50 [3] is reported as > 10000 nM.
With `COc1cc(F)ccc1Nc1ncc(Cl)c(Nc2ccccc2S(=O)(=O)NC(C)C)n1` [Example 19-6] the IC50 [1] was 5 nM, the IC50 ([2]; Mus musculus, 4T1) was 700 nM and the IC50 [3] was 1000 nM.
With `COc1cc(OC2CCN(C)CC2)ccc1Nc1ncc(Cl)c(Nc2ccccc2S(=O)(=O)NC(C)C)n1` [Example 19-7] the IC50 [1] was 2.1 nM, the IC50 ([2]; Mus musculus, 4T1) was 110 nM and the IC50 [3] was 300 nM.
In the case of `COc1c(Nc2ncc(Cl)c(Nc3ccccc3S(=O)(=O)NC(C)C)n2)ccc(N2CCOCC2)c1F` [Example 19-11], the IC50 [1] is reported as 38 nM, the IC50 ([2]; Mus musculus, 4T1) is reported as 2000 nM and the IC50 [3] is reported as > 10000 nM.
`COc1cc(N2CCC(NC(C)=O)C2)ccc1Nc1ncc(Cl)c(Nc2ccccc2S(=O)(=O)NC(C)C)n1` (stereo not drawn) [Example 19-13] was tested, and the IC50 [1] was 2.5 nM, the IC50 ([2]; Mus musculus, 4T1) was 1100 nM and the IC50 [3] was 300 nM.
In the case of `COc1cc(N2CCC(N3CCCC3)CC2)ccc1Nc1ncc(Cl)c(Nc2ccccc2S(=O)(=O)NC(C)C)n1` [Example 19-15], the IC50 [1] is reported as 3.1 nM, the IC50 ([2]; Mus musculus, 4T1) is reported as 360 nM and the IC50 [3] is reported as 500 nM.
`COc1cc(N2CCC[C@H]2CN2CCCC2)ccc1Nc1ncc(Cl)c(Nc2ccccc2S(=O)(=O)NC(C)C)n1` [Example 19-16] gave an IC50 [1] of 2.3 nM, an IC50 ([2]; Mus musculus, 4T1) of 1100 nM and an IC50 [3] of 700 nM.
With `COc1cc(OCC2CCCCN2C)ccc1Nc1ncc(Cl)c(Nc2ccccc2S(=O)(=O)NC(C)C)n1` (stereo not drawn) [Example 19-17] the IC50 [1] was 1 nM, the IC50 ([2]; Mus musculus, 4T1) was 170 nM and the IC50 [3] was > 10000 nM.
For `CCN(CC)C(=O)C1CCCN(c2ccc(Nc3ncc(Cl)c(Nc4ccccc4S(=O)(=O)NC(C)C)n3)c(OC)c2)C1` (stereo not drawn) [Example 19-18], the IC50 [1] was 7 nM, the IC50 ([2]; Mus musculus, 4T1) was 870 nM and the IC50 [3] was 130 nM.
With `COc1c(Nc2ncc(Cl)c(Nc3ccccc3S(=O)(=O)NC(C)C)n2)ccc(OC2CCN(C)CC2)c1F` [Example 19-21] the IC50 [1] was 84 nM, the IC50 ([2]; Mus musculus, 4T1) was 1710 nM and the IC50 [3] was > 10000 nM.
Compound `COc1cc(NCC(C)(C)CO)ccc1Nc1ncc(Cl)c(Nc2ccccc2S(=O)(=O)NC(C)C)n1` [Example 19-22] has an IC50 [1] of 3.4 nM, an IC50 ([2]; Mus musculus, 4T1) of 510 nM and an IC50 [3] of 120 nM.
With `COc1cc(NC(C)(C)CO)ccc1Nc1ncc(Cl)c(Nc2ccccc2S(=O)(=O)NC(C)C)n1` [Example 19-23] the IC50 [1] was 6.4 nM, the IC50 ([2]; Mus musculus, 4T1) was 710 nM and the IC50 [3] was 700 nM.
Work on `CC(C)NS(=O)(=O)c1ccccc1Nc1nc(Nc2ccc(OCCN3CCOCC3)cc2F)ncc1Cl` [Example 19-26] yielded an IC50 [1] of 6.1 nM, an IC50 ([2]; Mus musculus, 4T1) of 300 nM and an IC50 [3] of 100 nM.
`COc1cc(N2CCC(N3CCCCC3)CC2)ccc1Nc1ncc(Cl)c(Nc2ccccc2S(=O)(=O)NC(C)C)n1` [Example 19-27] showed an IC50 [1] of 1.5 nM, an IC50 ([2]; Mus musculus, 4T1) of 400 nM and an IC50 [3] of 300 nM.
For `COc1cc(OCCN2CCN(C)CC2)ccc1Nc1ncc(Cl)c(Nc2ccccc2S(=O)(=O)NC(C)C)n1` [Example 19-30], the IC50 [1] was < 1 nM, the IC50 ([2]; Mus musculus, 4T1) was 100 nM and the IC50 [3] was 60 nM.
Work on `COc1cc(N2CCN3CCOC[C@H]3C2)ccc1Nc1ncc(Cl)c(Nc2ccccc2S(=O)(=O)NC(C)C)n1` [Example 19-31] yielded an IC50 [1] of 1.8 nM, an IC50 ([2]; Mus musculus, 4T1) of 380 nM and an IC50 [3] of 400 nM.
For `COc1cc(NC2CCN(C)CC2)ccc1Nc1ncc(Cl)c(Nc2ccccc2S(=O)(=O)NC(C)C)n1` [Example 19-32], the IC50 [1] was 1.4 nM, the IC50 ([2]; Mus musculus, 4T1) was 310 nM and the IC50 [3] was 200 nM.
`CNS(=O)(=O)c1ccccc1Nc1nc(Nc2ccccc2OC(F)F)ncc1Cl` [Example 20-4] gave an IC50 [1] of 23 nM, an IC50 ([2]; Mus musculus, 4T1) of 1900 nM and an IC50 [3] of 580 nM.
In the case of `CNS(=O)(=O)c1ccccc1Nc1nc(Nc2ccc(N3CCC(NC(C)=O)C3)cc2OC)ncc1Cl` (stereo not drawn) [Example 20-5], the IC50 [1] is reported as 6.8 nM, the IC50 ([2]; Mus musculus, 4T1) is reported as 1460 nM and the IC50 [3] is reported as 870 nM.
For `CNS(=O)(=O)c1ccccc1Nc1nc(Nc2cccc3c2ccn3CCCN2CCN(C)CC2)ncc1Cl` [Example 20-9], the IC50 [1] was 2 nM, the IC50 ([2]; Mus musculus, 4T1) was 10 nM and the IC50 [3] was 300 nM.
`CNS(=O)(=O)c1ccccc1Nc1nc(Nc2cccc3c2ccn3CCCN2CCOCC2)ncc1Cl` [Example 20-10] was tested, and the IC50 [1] was 2 nM, the IC50 ([2]; Mus musculus, 4T1) was 20 nM and the IC50 [3] was 100 nM.
With `CNS(=O)(=O)c1ccccc1Nc1nc(Nc2cc(N3CCOCC3)ccc2OC)ncc1Cl` [Example 20-11] the IC50 [1] was 26 nM, the IC50 ([2]; Mus musculus, 4T1) was 400 nM and the IC50 [3] was 2000 nM.
In the case of `CNS(=O)(=O)c1ccccc1Nc1nc(Nc2ccc(N3CCCC(C(N)=O)C3)cc2OC)ncc1Cl` (stereo not drawn) [Example 20-15], the IC50 [1] is reported as 14 nM, the IC50 [2] is reported as 970 nM and the IC50 [3] is reported as 400 nM.
